Test results as given in PubChem BioAssay (NCI).
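Results reflect a 48-hour exposure of cells in 96-well plates to compound at five concentrations. At the GI50, growth is halved. TGI: total growth inhibition.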

How the values were obtained:
Experiment in all cases: DTP human tumour cell line panel, 48 h
SK-MEL-2 melanoma = test system: SK-MEL-2 melanoma
SNB-75 CNS = test system: SNB-75 CNS
786-0 renal = test system: 786-0 renal
OVCAR-8 ovarian = test system: OVCAR-8 ovarian
HCT-15 colon = test system: HCT-15 colon
SNB-19 CNS = test system: SNB-19 CNS
ACHN renal = test system: ACHN renal
HL-60(TB) leukemia = test system: HL-60(TB) leukemia
MALME-3M melanoma = test system: MALME-3M melanoma
CCRF-CEM leukemia = test system: CCRF-CEM leukemia
BT-549 breast = test system: BT-549 breast
UO-31 renal = test system: UO-31 renal
TK-10 renal = test system: TK-10 renal
NCI-H23 lung = test system: NCI-H23 lung
SF-268 CNS = test system: SF-268 CNS
PC-3 prostate = test system: PC-3 prostate
RPMI-8226 leukemia = test system: RPMI-8226 leukemia
RXF 393 renal = test system: RXF 393 renal
SK-MEL-5 melanoma = test system: SK-MEL-5 melanoma
M14 melanoma = test system: M14 melanoma
SK-MEL-28 melanoma = test system: SK-MEL-28 melanoma
SF-295 CNS = test system: SF-295 CNS
SR leukemia = test system: SR leukemia
SN12C renal = test system: SN12C renal
DU-145 prostate = test system: DU-145 prostate
A498 renal = test system: A498 renal
SW-620 colon = test system: SW-620 colon
U251 CNS = test system: U251 CNS
A549 NSCLC = test system: A549 NSCLC
KM12 colon = test system: KM12 colon
HCT-116 colon = test system: HCT-116 colon
OVCAR-4 ovarian = test system: OVCAR-4 ovarian
HT29 colon = test system: HT29 colon
HCC-2998 colon = test system: HCC-2998 colon
UACC-257 melanoma = test system: UACC-257 melanoma
T-47D breast = test system: T-47D breast
NCI-H226 lung = test system: NCI-H226 lung
HS 578T breast = test system: HS 578T breast
MDA-MB-231 breast = test system: MDA-MB-231 breast
HOP-92 NSCLC = test system: HOP-92 NSCLC
COLO 205 colon = test system: COLO 205 colon
MOLT-4 leukemia = test system: MOLT-4 leukemia
HOP-62 NSCLC = test system: HOP-62 NSCLC
NCI-H460 lung = test system: NCI-H460 lung
LOX IMVI melanoma = test system: LOX IMVI melanoma
MDA-MB-435 = test system: MDA-MB-435
K-562 leukemia = test system: K-562 leukemia
NCI/ADR-RES ovarian = test system: NCI/ADR-RES ovarian
SK-OV-3 ovarian = test system: SK-OV-3 ovarian
OVCAR-5 ovarian = test system: OVCAR-5 ovarian
EKVX NSCLC = test system: EKVX NSCLC
NCI-H522 lung = test system: NCI-H522 lung
SF-539 CNS = test system: SF-539 CNS
OVCAR-3 ovarian = test system: OVCAR-3 ovarian
CAKI-1 renal = test system: CAKI-1 renal
MCF7 breast = test system: MCF7 breast
UACC-62 melanoma = test system: UACC-62 melanoma
IGROV1 ovarian = test system: IGROV1 ovarian

## Fc1cccc(COc2ccc(Nc3ncncc3C#Cc3ccccc3)cc2Cl)c1
SK-MEL-2 melanoma
  GI50: > 25 µM
  TGI: > 25 µM
SNB-75 CNS
  GI50: > 25 µM
  TGI: > 25 µM
786-0 renal
  GI50: > 25 µM
  TGI: > 25 µM
OVCAR-8 ovarian
  GI50: > 25 µM
  TGI: > 25 µM
HCT-15 colon
  GI50: > 25 µM
  TGI: > 25 µM
SNB-19 CNS
  GI50: > 25 µM
  TGI: > 25 µM
ACHN renal
  GI50: > 25 µM
  TGI: > 25 µM
HL-60(TB) leukemia
  GI50: > 25 µM
  TGI: > 25 µM
MALME-3M melanoma
  GI50: > 25 µM
  TGI: > 25 µM
CCRF-CEM leukemia
  GI50: > 25 µM
  TGI: > 25 µM
BT-549 breast
  GI50: > 25 µM
  TGI: > 25 µM
UO-31 renal
  GI50: 21.6 µM
  TGI: > 25 µM
TK-10 renal
  GI50: 15 µM
  TGI: > 25 µM
NCI-H23 lung
  GI50: > 25 µM
  TGI: > 25 µM
SF-268 CNS
  GI50: > 25 µM
  TGI: > 25 µM
PC-3 prostate
  GI50: > 25 µM
  TGI: > 25 µM
RPMI-8226 leukemia
  GI50: > 25 µM
  TGI: > 25 µM
RXF 393 renal
  GI50: > 25 µM
  TGI: > 25 µM
SK-MEL-5 melanoma
  GI50: > 25 µM
  TGI: > 25 µM
M14 melanoma
  GI50: > 25 µM
  TGI: > 25 µM
SK-MEL-28 melanoma
  GI50: > 25 µM
  TGI: > 25 µM
SF-295 CNS
  GI50: > 25 µM
  TGI: > 25 µM
SR leukemia
  GI50: > 25 µM
  TGI: > 25 µM
SN12C renal
  GI50: > 25 µM
  TGI: > 25 µM
DU-145 prostate
  GI50: > 25 µM
  TGI: > 25 µM
A498 renal
  GI50: > 17.1 µM
  TGI: > 25 µM
SW-620 colon
  GI50: > 25 µM
  TGI: > 25 µM
U251 CNS
  GI50: > 25 µM
  TGI: > 25 µM
A549 NSCLC
  GI50: > 25 µM
  TGI: > 25 µM
KM12 colon
  GI50: > 25 µM
  TGI: > 25 µM
HCT-116 colon
  GI50: 24.4 µM
  TGI: > 25 µM
OVCAR-4 ovarian
  GI50: > 25 µM
  TGI: > 25 µM
HT29 colon
  GI50: > 25 µM
  TGI: > 25 µM
HCC-2998 colon
  GI50: > 25 µM
  TGI: > 25 µM
UACC-257 melanoma
  GI50: > 25 µM
  TGI: > 25 µM
T-47D breast
  GI50: 20 µM
  TGI: > 25 µM
NCI-H226 lung
  GI50: > 25 µM
  TGI: > 25 µM
HS 578T breast
  GI50: > 25 µM
  TGI: > 25 µM
MDA-MB-231 breast
  GI50: > 25 µM
  TGI: > 25 µM
HOP-92 NSCLC
  GI50: > 18.8 µM
  TGI: > 25 µM
COLO 205 colon
  GI50: > 25 µM
  TGI: > 25 µM
MOLT-4 leukemia
  GI50: > 25 µM
  TGI: > 25 µM
HOP-62 NSCLC
  GI50: > 25 µM
  TGI: > 25 µM
NCI-H460 lung
  GI50: > 25 µM
  TGI: > 25 µM
LOX IMVI melanoma
  GI50: > 25 µM
  TGI: > 25 µM
MDA-MB-435
  GI50: > 25 µM
  TGI: > 25 µM
K-562 leukemia
  GI50: > 25 µM
  TGI: > 25 µM
NCI/ADR-RES ovarian
  GI50: > 25 µM
  TGI: > 25 µM
SK-OV-3 ovarian
  GI50: > 25 µM
  TGI: > 25 µM
OVCAR-5 ovarian
  GI50: > 25 µM
  TGI: > 25 µM
EKVX NSCLC
  GI50: 8.26 µM
  TGI: > 25 µM
NCI-H522 lung
  GI50: > 22.4 µM
  TGI: > 25 µM
SF-539 CNS
  GI50: > 25 µM
  TGI: > 25 µM
OVCAR-3 ovarian
  GI50: > 25 µM
  TGI: > 25 µM
CAKI-1 renal
  GI50: 12.5 µM
  TGI: > 25 µM
MCF7 breast
  GI50: > 25 µM
  TGI: > 25 µM
UACC-62 melanoma
  GI50: > 25 µM
  TGI: > 25 µM
IGROV1 ovarian
  GI50: > 24 µM
  TGI: > 25 µM
